Test results: US11872209B2, “Treatment for primary biliary cholangitis” (Zydus Lifesciences Limited, priority 2016, dated 2024)
Entries after “also recorded” stand apart in the source; their conditions may differ. Structures can show the parent of a compound that is named as a salt.

Test system: carbon tetrachloride-induced liver fibrosis
Experiment: Carbon tetrachloride-induced liver fibrosis in male Sprague Dawley rats
Type: in vivo
Settings: 0.4 and 4 mg/kg/day orally for 4 weeks with continued CCl4 injections
Experimental: To assess the effect of Compound of formula (Ia) on the progression of established hepatic fibrosis, fibrosis was induced in rats by twice weekly carbon tetrachloride (CCl4) injections for 2 weeks via an intraperitoneal route. Compound (Ia) (0.4 and 4 mg/kg/day), pioglitazone (10 mg/kg/day), fenofibrate (100 mg/kg/day) or vehicle (Tween 80 and 0.5% sodium salt of carboxymethylcellulose at ratio of 0.5:99.5) was then orally administered for 4 weeks to animals concomitantly with continued CCl4 injections. After 4 weeks of treatment, blood samples were collected 1 h post-dose, for estimation of non-fasted serum ALT and other serum parameters. All the animals were sacrificed; liver was quickly removed, weighed and fixed in 10% formalin for histological analysis or snap frozen in liquid nitrogen for other assays. Light microscopic examination of liver tissue was performed using standard hematoxylin and eosin (H&E) staining. Hepatic fibrosis was accessed by Masson's trichrome staining method.

CCO[C@@H](Cc1ccc(OCCn2c(C)ccc2-c2ccc(SC)cc2)cc1)C(=O)O [Compound (Ia), saroglitazar magnesium salt]
Effect on CCl4-induced liver fibrosis (after 2 weeks of CCl4, listed as Compound of formula (Ia)): protected the animals from further deterioration and exhibited a dose-dependent reversal of CCl4-induced liver fibrosis; also recorded: protected the animals from further deterioration and showed dose dependent reversal of CCl4-induced liver fibrosis | Microscopic quantification of fibrosis (H&E and Masson's trichrome staining of liver tissues) (FIG. 1): stopped the progression of established liver fibrosis and accelerated liver recovery
